Reference: ChEMBL document CHEMBL3865846, “Synthesis and biological evaluation of ricinoleic acid-based lipoamino acid derivatives” (Bioorg Med Chem Lett, 2016)
≈ marks a conversion by molar mass, not a printed value.

Experiments:
Assay type in all cases: functional
Staphylococcus aureus [1] = test: Anti-biofilm activity against Staphylococcus aureus MLS16 MTCC2940 measured after 24 hrs by crystal violet-staining based method; details: MLS16 MTCC2940, 24 h
Candida parapsilosis [2] = test: Fungicidal activity against Candida parapsilosis MTCC1744 measured after 24 hrs; details: Lodderomyces parapsilosis, MTCC1744, 24 h
Candida albicans [3] = test: Antimicrobial activity against Candida albicans MTCC3018 measured after 24 hrs by well-diffusion method; details: MTCC3018, 24 h
Nakaseomyces glabratus [4] = test: Fungicidal activity against Candida glabrata MTCC3019 measured after 24 hrs; details: MTCC3019, 24 h
Bacillus subtilis [5] = test: Bactericidal activity against Bacillus subtilis MTCC121 measured after 24 hrs; details: MTCC121, 24 h
Escherichia coli = test: Antimicrobial activity against Escherichia coli MTCC739 measured after 24 hrs by well-diffusion method; details: MTCC739, 24 h
Candida albicans [6] = test: Fungicidal activity against Candida albicans MTCC227 measured after 24 hrs; details: MTCC227, 24 h
Pseudomonas aeruginosa = test: Antimicrobial activity against Pseudomonas aeruginosa MTCCM2453 measured after 24 hrs by well-diffusion method; details: MTCCM2453, 24 h
Candida albicans [7] = test: Antimicrobial activity against Candida albicans MTCC3017 measured after 24 hrs by well-diffusion method; details: MTCC3017, 24 h
Pichia kudriavzevii [8] = test: Fungicidal activity against Candida krusei MTCC3020 measured after 24 hrs; details: MTCC3020, 24 h
Raoultella planticola = test: Antimicrobial activity against Klebsiella planticola MTCC530 measured after 24 hrs by well-diffusion method; details: MTCC530, 24 h
Candida albicans [9] = test: Fungicidal activity against Candida albicans MTCC1637 measured after 24 hrs; details: MTCC1637, 24 h
Pichia kudriavzevii [10] = test: Antimicrobial activity against Candida krusei MTCC3020 measured after 24 hrs by well-diffusion method; details: MTCC3020, 24 h
Candida albicans [11] = test: Fungicidal activity against Candida albicans MTCC183 measured after 24 hrs; details: MTCC183, 24 h
Micrococcus luteus [12] = test: Anti-biofilm activity against Micrococcus luteus MTCC2470 measured after 24 hrs by crystal violet-staining based method; details: MTCC2470, 24 h
[Candida] aaseri = Fungicidal activity against Candida aaseri MTCC1962 measured after 24 hrs; details: Yamadazyma aaseri, MTCC1962, 24 h
Candida albicans [13] = test: Antimicrobial activity against Candida albicans MTCC7315 measured after 24 hrs by well-diffusion method; details: MTCC7315, 24 h
Nakaseomyces glabratus [14] = test: Antimicrobial activity against Candida glabrata MTCC3019 measured after 24 hrs by well-diffusion method; details: MTCC3019, 24 h
Staphylococcus aureus [15] = test: Antimicrobial activity against Staphylococcus aureus MLS16 MTCC2940 measured after 24 hrs by well-diffusion method; details: MLS16 MTCC2940, 24 h
Staphylococcus aureus [16] = test: Anti-biofilm activity against Staphylococcus aureus MTCC96 measured after 24 hrs by crystal violet-staining based method; details: MTCC96, 24 h
Pichia sporocuriosa = test: Antimicrobial activity against Issatchenkia hanoiensis MTCC4755 measured after 24 hrs by well-diffusion method; details: MTCC4755, 24 h
Candida albicans [17] = test: Antimicrobial activity against Candida albicans MTCC183 measured after 24 hrs by well-diffusion method; details: MTCC183, 24 h
Candida albicans [18] = test: Fungicidal activity against Candida albicans MTCC854 measured after 24 hrs; details: MTCC854, 24 h
Staphylococcus aureus [19] = test: Antimicrobial activity against Staphylococcus aureus MTCC96 measured after 24 hrs by well-diffusion method; details: MTCC96, 24 h
Candida albicans [20] = test: Antimicrobial activity against Candida albicans MTCC227 measured after 24 hrs by well-diffusion method; details: MTCC227, 24 h
Candida albicans [21] = test: Fungicidal activity against Candida albicans MTCC4748 measured after 24 hrs; details: MTCC4748, 24 h
Staphylococcus aureus [22] = test: Bactericidal activity against Staphylococcus aureus MLS16 MTCC2940 measured after 24 hrs; details: MLS16 MTCC2940, 24 h
Candida albicans [23] = test: Fungicidal activity against Candida albicans MTCC3018 measured after 24 hrs; details: MTCC3018, 24 h
Candida albicans [24] = test: Antimicrobial activity against Candida albicans MTCC854 measured after 24 hrs by well-diffusion method; details: MTCC854, 24 h
Candida albicans [25] = test: Antimicrobial activity against Candida albicans MTCC3958 measured after 24 hrs by well-diffusion method; details: MTCC3958, 24 h
Pichia kudriavzevii [26] = test: Anti-biofilm activity against Candida krusei MTCC3020 measured after 24 hrs by crystal violet-staining based method; details: MTCC3020, 24 h
Bacillus subtilis [27] = test: Antimicrobial activity against Bacillus subtilis MTCC121 measured after 24 hrs by well-diffusion method; details: MTCC121, 24 h
Candida parapsilosis [28] = test: Antimicrobial activity against Candida parapsilosis MTCC1744 measured after 24 hrs by well-diffusion method; details: Lodderomyces parapsilosis, MTCC1744, 24 h
Micrococcus luteus [29] = test: Bactericidal activity against Micrococcus luteus MTCC2470 measured after 24 hrs; details: MTCC2470, 24 h
Candida albicans [30] = test: Antimicrobial activity against Candida albicans MTCC4748 measured after 24 hrs by well-diffusion method; details: MTCC4748, 24 h
Bacillus subtilis [31] = test: Anti-biofilm activity against Bacillus subtilis MTCC121 measured after 24 hrs by crystal violet-staining based method; details: MTCC121, 24 h
Candida albicans [32] = test: Fungicidal activity against Candida albicans MTCC3958 measured after 24 hrs; details: MTCC3958, 24 h
Staphylococcus aureus [33] = test: Bactericidal activity against Staphylococcus aureus MTCC96 measured after 24 hrs; details: MTCC96, 24 h
Micrococcus luteus [34] = test: Antimicrobial activity against Micrococcus luteus MTCC2470 measured after 24 hrs by well-diffusion method; details: MTCC2470, 24 h
Candida albicans [35] = test: Fungicidal activity against Candida albicans MTCC7315 measured after 24 hrs; details: MTCC7315, 24 h
Candida albicans [36] = test: Antimicrobial activity against Candida albicans MTCC1637 measured after 24 hrs by well-diffusion method; details: MTCC1637, 24 h

`CCCCCCC(C/C=C\CCCCCCCC(=O)OC)NC(=O)CN` (stereo unspecified) was tested, and the IC50 (Staphylococcus aureus [1]) was 4.1 µg/mL (≈ 11.1 µM), the MFC (Candida parapsilosis [2]) was 7.8 to 31.2 µg/mL (≈ 21.2 to 84.7 µM) and the MIC (Candida albicans [3]) was 7.8 µg/mL (≈ 21.2 µM). The MFC (Nakaseomyces glabratus [4]) was 7.8 to 31.2 µg/mL (≈ 21.2 to 84.7 µM), the MBC (Bacillus subtilis [5]) was 7.8 µg/mL (≈ 21.2 µM) and the MIC (Escherichia coli) was > 125 µg/mL. For the same compound, the MFC (Candida albicans [6]) was 7.8 to 31.2 µg/mL (≈ 21.2 to 84.7 µM), the MIC (Pseudomonas aeruginosa) was > 125 µg/mL and the MIC (Candida albicans [7]) was 7.8 µg/mL (≈ 21.2 µM). For the same compound, the MFC (Pichia kudriavzevii [8]) was 7.8 µg/mL (≈ 21.2 µM), the MIC (Raoultella planticola) was > 125 µg/mL and the MFC (Candida albicans [9]) was 7.8 to 31.2 µg/mL (≈ 21.2 to 84.7 µM). For the same compound, the MIC (Pichia kudriavzevii [10]) was 7.8 µg/mL (≈ 21.2 µM), the MFC (Candida albicans [11]) was 7.8 to 31.2 µg/mL (≈ 21.2 to 84.7 µM) and the IC50 (Micrococcus luteus [12]) was 1.9 µg/mL (≈ 5.16 µM). It also gave an MFC ([Candida] aaseri) of 7.8 to 31.2 µg/mL (≈ 21.2 to 84.7 µM), an MIC (Candida albicans [13]) of 7.8 µg/mL (≈ 21.2 µM) and an MIC (Nakaseomyces glabratus [14]) of 7.8 µg/mL (≈ 21.2 µM). It also gave an MIC (Staphylococcus aureus [15]) of 7.8 µg/mL (≈ 21.2 µM), an IC50 (Staphylococcus aureus [16]) of 2.1 µg/mL (≈ 5.7 µM) and an MIC (Pichia sporocuriosa) of 7.8 µg/mL (≈ 21.2 µM). The MIC (Candida albicans [17]) was 7.8 µg/mL (≈ 21.2 µM), the MFC (Candida albicans [18]) was 7.8 to 31.2 µg/mL (≈ 21.2 to 84.7 µM) and the MIC (Staphylococcus aureus [19]) was 3.9 µg/mL (≈ 10.6 µM). It also gave an MIC (Candida albicans [20]) of 7.8 µg/mL (≈ 21.2 µM), an MFC (Candida albicans [21]) of 7.8 to 31.2 µg/mL (≈ 21.2 to 84.7 µM) and an MBC (Staphylococcus aureus [22]) of 7.8 µg/mL (≈ 21.2 µM). The MFC (Candida albicans [23]) was 7.8 to 31.2 µg/mL (≈ 21.2 to 84.7 µM), the MIC (Candida albicans [24]) was 7.8 µg/mL (≈ 21.2 µM) and the MIC (Candida albicans [25]) was 7.8 µg/mL (≈ 21.2 µM). It also gave an IC50 (Pichia kudriavzevii [26]) of 4.1 µg/mL (≈ 11.1 µM), an MIC (Bacillus subtilis [27]) of 7.8 µg/mL (≈ 21.2 µM) and an MIC (Candida parapsilosis [28]) of 7.8 µg/mL (≈ 21.2 µM). For the same compound, the MBC (Micrococcus luteus [29]) was 7.8 µg/mL (≈ 21.2 µM), the MIC (Candida albicans [30]) was 7.8 µg/mL (≈ 21.2 µM) and the IC50 (Bacillus subtilis [31]) was 2.9 µg/mL (≈ 7.87 µM). It also gave an MFC (Candida albicans [32]) of 7.8 to 31.2 µg/mL (≈ 21.2 to 84.7 µM), an MBC (Staphylococcus aureus [33]) of 7.8 µg/mL (≈ 21.2 µM) and an MIC (Micrococcus luteus [34]) of 3.9 µg/mL (≈ 10.6 µM). For the same compound, the MFC (Candida albicans [35]) was 7.8 to 31.2 µg/mL (≈ 21.2 to 84.7 µM) and the MIC (Candida albicans [36]) was 7.8 µg/mL (≈ 21.2 µM).
